From paper PMC8267566, “Human GPR17 missense variants identified in metabolic disease patients have distinct downstream signaling profiles” (The Journal of Biological Chemistry, 2021)
Read-outs that look alike come from different tables or passages of the source.

How the values were obtained:
Type in all cases: cell-based
hGPR17L-V96M [1] = target: T1, hGPR17L-V96M (Homo sapiens, UniProt Q13304, V96M); test: Calcium flux assay
T1 construct: expressed in transfected cells; host or cells: HEK293 (ATCC CRL-1573), transient transfection
T1 sequence (Q13304 whole entry V96M): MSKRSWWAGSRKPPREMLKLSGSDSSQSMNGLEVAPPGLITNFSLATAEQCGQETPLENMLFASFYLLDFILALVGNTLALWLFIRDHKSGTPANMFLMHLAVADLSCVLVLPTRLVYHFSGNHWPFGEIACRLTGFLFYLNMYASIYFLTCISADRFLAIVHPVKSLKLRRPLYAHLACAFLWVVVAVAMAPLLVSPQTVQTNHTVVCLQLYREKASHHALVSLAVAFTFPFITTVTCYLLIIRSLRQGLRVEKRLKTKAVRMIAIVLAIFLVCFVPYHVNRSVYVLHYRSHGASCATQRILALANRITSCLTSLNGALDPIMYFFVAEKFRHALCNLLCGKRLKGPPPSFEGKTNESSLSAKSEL
Method: (§1) HEK293 cells were seeded at 20,000 cells/well into black, optical bottom, poly-D-lysine coated 96-well plates. The following day, cells were transiently transfected with pcDNA3-HA-hGPR17L or pcDNA3-HA-hGPR17L-variants using lipofectamine 3000. Twenty-four hours after transfection, the growth medium and transfection mix were decanted and 100 μl/well assay buffer (HBSS, 20 mM HEPES, pH 7.2) and 100 μl/well Calcium 6 loading dye (R8190; Molecular Devices) were added to the plate and incubated at 37 °C, 5% CO2 for 1 h 45 min. Plate was allowed to equilibrate to room temperature on the bench top for 30 min. MDL29,951 diluted in assay buffer was added to the wells and fluorescence (485 nm excitation, 525 nm emission, and 515 nm automatic emission cutoff) was measured using a Molecular Devices FlexStation3 (Molecular Devices). For experiments with pertussis toxin, cells were pretreated with 100 ng/ml pertussis toxin overnight and 100 ng/ml pertussis toxin was included with Calcium 6 loading dye for calcium flux assays.

hGPR17L-R248Q = target: T2, hGPR17L-R248Q (Homo sapiens, UniProt Q13304, R248Q); test: Calcium flux assay
T2 construct: expressed in transfected cells; host or cells: HEK293 (ATCC CRL-1573), transient transfection
T2 sequence (Q13304 whole entry R248Q): as the sequence (Q13304 whole entry V96M) above, with M96V, R248Q counted along it
Method: as §1

hGPR17L-G354V = target: T3, hGPR17L-G354V (Homo sapiens, UniProt Q13304, G354V); test: Calcium flux assay
T3 construct: expressed in transfected cells; host or cells: HEK293 (ATCC CRL-1573)
T3 sequence (Q13304 whole entry G354V): as the sequence (Q13304 whole entry V96M) above, with M96V, G354V counted along it
Method: as §1

hGPR17L-WT [2] = target: T4, hGPR17L-WT (Homo sapiens, UniProt Q13304); test: Calcium flux assay
T4 construct: expressed in transfected cells; host or cells: HEK293 (ATCC CRL-1573), transient transfection of pcDNA3-HA-hGPR17L
T4 sequence (Q13304 whole entry): as the sequence (Q13304 whole entry V96M) above, with M96V counted along it
Method: as §1

hGPR17L-G136S [3] = target: T5, hGPR17L-G136S (Homo sapiens, UniProt Q13304, G136S); test: Calcium flux assay; conditions: HEK293, read-out: calcium response, % of the maximum response observed for hGPR17L-WT
T5 construct: expressed in transfected cells; host or cells: HEK293 (ATCC CRL-1573), transient transfection
T5 sequence (Q13304 whole entry G136S): as the sequence (Q13304 whole entry V96M) above, with M96V, G136S counted along it
Method: as §1

hGPR17L-F43L = target: T6, hGPR17L-F43L (Homo sapiens, UniProt Q13304, F43L); test: Calcium flux assay
T6 construct: expressed in transfected cells; host or cells: HEK293 (ATCC CRL-1573), transient transfection
T6 sequence (Q13304 whole entry F43L): as the sequence (Q13304 whole entry V96M) above, with F43L, M96V counted along it
Method: as §1

hGPR17L-V103M = target: T7, hGPR17L-V103M (Homo sapiens, UniProt Q13304, V103M); test: Calcium flux assay
T7 construct: expressed in transfected cells; host or cells: HEK293 (ATCC CRL-1573), transient transfection
T7 sequence (Q13304 whole entry V103M): as the sequence (Q13304 whole entry V96M) above, with M96V, V103M counted along it
Method: as §1

hGPR17L-D105N [4] = target: T8, hGPR17L-D105N (Homo sapiens, UniProt Q13304, D105N); test: Calcium flux assay
T8 construct: expressed in transfected cells; host or cells: HEK293 (ATCC CRL-1573), transient transfection
T8 sequence (Q13304 whole entry D105N): as the sequence (Q13304 whole entry V96M) above, with M96V, D105N counted along it
Method: as §1

hGPR17L-A131T [5] = target: T9, hGPR17L-A131T (Homo sapiens, UniProt Q13304, A131T); test: Calcium flux assay
T9 construct: expressed in transfected cells; host or cells: HEK293 (ATCC CRL-1573), transient transfection
T9 sequence (Q13304 whole entry A131T): as the sequence (Q13304 whole entry V96M) above, with M96V, A131T counted along it
Method: as §1

hGPR17L-R301H = target: T10, hGPR17L-R301H (Homo sapiens, UniProt Q13304, R301H); test: Calcium flux assay
T10 construct: expressed in transfected cells; host or cells: HEK293 (ATCC CRL-1573)
T10 sequence (Q13304 whole entry R301H): as the sequence (Q13304 whole entry V96M) above, with M96V, R301H counted along it
Method: as §1

hGPR17L-V96M [6] = target: T1, hGPR17L-V96M
Method: (§2) For agonist-mediated stimulatory cAMP assays, HEK293 cells were seeded and transfected as noted above. Cells were treated with 100 ng/ml pertussis toxin overnight (Sigma-Aldrich P2980). Twenty-four hours posttransfection, growth medium and transfection mix were aspirated and replaced with 100 μl/well equilibration medium (2% Promega GloSensor cAMP reagent [E1291; Promega Corporation] in CO2-independent medium) containing 100 ng/ml pertussis toxin and incubated at room temperature for 2 h. Baseline luminescence was read every 2 min on a Molecular Devices SpectraMax iD5 plate reader (Molecular Devices) at ambient room temperature for 8 min. Subsequently, 10 μl/well MDL29,951 diluted in assay buffer (HBSS, 20 mM HEPES, pH 7.2) was added and luminescence was read every 2 min for 16 min. Within each well, the luminescence values for each time point were normalized to their average baseline luminescence values. The average luminescence values for the time points between 8 and 16 min after MDL29,951 addition were expressed as a percentage of the maximum response observed for hGPR17L-WT.

hGPR17L-WT [7] = target: T4, hGPR17L-WT
Method: as §2

hGPR17L-G136S [8] = target: T5, hGPR17L-G136S
Method: as §2

hGPR17L-D105N [9] = target: T8, hGPR17L-D105N
Method: as §2

hGPR17L-A131T [10] = target: T9, hGPR17L-A131T; test: GloSensor stimulatory cAMP assay with pertussis toxin pretreatment
Method: as §2

[11] = read-out: Ca2+ EC50, HEK293, calcium mobilization
[12] = read-out: Stimulatory cAMP EC50

O=C(O)CCc1c(C(=O)O)[nH]c2cc(Cl)cc(Cl)c12 [MDL29,951]
calcium mobilization in the presence of pertussis toxin (hGPR17L-V96M [1]): reduced calcium mobilization | fold less potent calcium response vs hGPR17L-WT (hGPR17L-V96M [1]; hGPR17L-V96M): 6–7 fold | reduction of efficacy of calcium response vs hGPR17L-WT (hGPR17L-V96M [1]; hGPR17L-V96M): approximately 70% | Ca2+ Efficacy (% of WT Emax) (hGPR17L-V96M [1]; hGPR17L-V96M, HEK293): 31 ± 4.7 % of WT Emax | Ca2+ pEC50 ± SEM (hGPR17L-V96M [1]; hGPR17L-V96M, HEK293, calcium mobilization): 6.27 ± 0.05 | EC50 (hGPR17L-V96M [1]; read-out: Ca2+ EC50, hGPR17L-V96M, HEK293, calcium mobilization): 540 nM | Ca2+ Efficacy (% of WT Emax) (hGPR17L-R248Q; HEK293): 103 ± 25 % of WT Emax | Ca2+ pEC50 ± SEM (hGPR17L-R248Q; HEK293, calcium mobilization): 6.92 ± 0.02 | EC50 (hGPR17L-R248Q; [11]): 120 nM | Ca2+ Efficacy (% of WT Emax) (hGPR17L-G354V; HEK293): 92 ± 2.6 % of WT Emax | Ca2+ pEC50 ± SEM (hGPR17L-G354V; HEK293, calcium mobilization): 7.05 ± 0.29 | EC50 (hGPR17L-G354V; [11]): 89 nM | calcium flux efficacy with pertussis toxin (% of control pretreatment) (hGPR17L-WT [2]): 82 ± 1.4 % of control pretreatment | calcium flux potency with pertussis toxin, fold shift in EC50 (hGPR17L-WT [2]): approximately 2.5 fold | Ca2+ Efficacy (% of WT Emax) (hGPR17L-WT [2]; hGPR17L-WT, HEK293): 100 % of WT Emax | maximum stimulation of calcium mobilization (hGPR17L-WT [2]; hGPR17L-WT, HEK293): 1.51 ± 0.14 Peak ΔF/F | Ca2+ pEC50 ± SEM (hGPR17L-WT [2]; hGPR17L-WT, HEK293, calcium mobilization): 7.09 ± 0.11 | EC50 (hGPR17L-WT [2]; read-out: Ca2+ EC50, hGPR17L-WT, HEK293, calcium mobilization): 82 nM | Emax (hGPR17L-G136S [3]): 3.6 ± 1.3% | Ca2+ Efficacy (% of WT Emax) (hGPR17L-F43L; HEK293): 97 ± 3.9 % of WT Emax | Ca2+ pEC50 ± SEM (hGPR17L-F43L; HEK293, calcium mobilization): 7.25 ± 0.19 | EC50 (hGPR17L-F43L; [11]): 57 nM | Ca2+ Efficacy (% of WT Emax) (hGPR17L-V103M; HEK293): 119 ± 8.4 % of WT Emax | Ca2+ pEC50 ± SEM (hGPR17L-V103M; HEK293, calcium mobilization): 6.66 ± 0.09 | EC50 (hGPR17L-V103M; [11]): 220 nM | calcium mobilization in the presence of pertussis toxin (hGPR17L-D105N [4]): reduced calcium mobilization | fold less potent calcium response vs hGPR17L-WT (hGPR17L-D105N [4]; hGPR17L-D105N): 6–7 fold | reduction of efficacy of calcium response vs hGPR17L-WT (hGPR17L-D105N [4]; hGPR17L-D105N): approximately 70% | Ca2+ Efficacy (% of WT Emax) (hGPR17L-D105N [4]; hGPR17L-D105N, HEK293): 28 ± 4.5 % of WT Emax | Ca2+ pEC50 ± SEM (hGPR17L-D105N [4]; hGPR17L-D105N, HEK293, calcium mobilization): 6.21 ± 0.11 | EC50 (hGPR17L-D105N [4]; read-out: Ca2+ EC50, hGPR17L-D105N, HEK293, calcium mobilization): 620 nM | Ca2+ Efficacy (% of WT Emax) (hGPR17L-A131T [5]; HEK293): 109 ± 8.9 % of WT Emax | Ca2+ pEC50 ± SEM (hGPR17L-A131T [5]; HEK293, calcium mobilization): 6.63 ± 0.08 | EC50 (hGPR17L-A131T [5]; [11]): 230 nM | Ca2+ Efficacy (% of WT Emax) (hGPR17L-R301H; HEK293): 85 ± 3.6 % of WT Emax | Ca2+ pEC50 ± SEM (hGPR17L-R301H; HEK293, calcium mobilization): 6.74 ± 0.14 | EC50 (hGPR17L-R301H; [11]): 180 nM | stimulatory cAMP response (hGPR17L-V96M [6]): unable to promote stimulatory cAMP responses | Stimulatory cAMP Efficacy (% of WT Emax) (hGPR17L-WT [7]): 100 % of WT Emax | Stimulatory cAMP pEC50 ± SEM (hGPR17L-WT [7]): 5.18 ± 0.04 | maximum stimulatory cAMP response (hGPR17L-WT [7]): 1.21 ± 0.24 ΔRLU/RLU | EC50 (hGPR17L-WT [7]; [12]): 6600 nM | stimulatory cAMP response (hGPR17L-G136S [8]): unable to promote stimulatory cAMP responses | stimulatory cAMP response (hGPR17L-D105N [9]): unable to promote stimulatory cAMP responses | Stimulatory cAMP pEC50 ± SEM (hGPR17L-A131T [10]): 4.72 ± 0.05 | loss of potency, fold shift in EC50 vs hGPR17L-WT (stimulatory cAMP) (hGPR17L-A131T [10]): 3–7 fold | Stimulatory cAMP Efficacy (% of WT Emax) (hGPR17L-A131T [10]; hGPR17L-A131T, HEK293, 100 ng/ml pertussis toxin overnight): 105 ± 21 % of WT Emax | EC50 (hGPR17L-A131T [10]; [12]): 19000 nM
